The record followed here is patent US10435371B2, “Multifunctional aminoquinoline therapeutic agent” (LOHOCLA RESEARCH CORPORATION, priority 2014, dated 2019).

Assay [1] concerns the target GABA site, GABA-A Receptor. The assay can be described thus: PDSP radioligand displacement, [^3H]Muscimol. Conditions: read-out: Binding constant Ki, GABA site, GABA-A Receptor. More on the design: species or system rat.
The target in assay [2] is BDZ site, GABA-A Receptor. As to the kind of experiment: PDSP radioligand displacement, [^3H]Flunitrazepam. More on the design: species or system rat. Particulars: read-out: Binding constant Ki, BDZ site, GABA-A Receptor.
For assay [3], the target named is CaV1.2 (Voltage sensitive Ca** channel (L-type)) (Homo sapiens, UniProt Q13936). The assay can be described thus: PDSP radioligand binding. Particulars: Table 3, the 6th table r22c0; read-out: Ki, CaV1.2 (lack of affinity).
CaV1.2 (Voltage sensitive Ca** channel (L-type)), sequence (Q13936 whole entry): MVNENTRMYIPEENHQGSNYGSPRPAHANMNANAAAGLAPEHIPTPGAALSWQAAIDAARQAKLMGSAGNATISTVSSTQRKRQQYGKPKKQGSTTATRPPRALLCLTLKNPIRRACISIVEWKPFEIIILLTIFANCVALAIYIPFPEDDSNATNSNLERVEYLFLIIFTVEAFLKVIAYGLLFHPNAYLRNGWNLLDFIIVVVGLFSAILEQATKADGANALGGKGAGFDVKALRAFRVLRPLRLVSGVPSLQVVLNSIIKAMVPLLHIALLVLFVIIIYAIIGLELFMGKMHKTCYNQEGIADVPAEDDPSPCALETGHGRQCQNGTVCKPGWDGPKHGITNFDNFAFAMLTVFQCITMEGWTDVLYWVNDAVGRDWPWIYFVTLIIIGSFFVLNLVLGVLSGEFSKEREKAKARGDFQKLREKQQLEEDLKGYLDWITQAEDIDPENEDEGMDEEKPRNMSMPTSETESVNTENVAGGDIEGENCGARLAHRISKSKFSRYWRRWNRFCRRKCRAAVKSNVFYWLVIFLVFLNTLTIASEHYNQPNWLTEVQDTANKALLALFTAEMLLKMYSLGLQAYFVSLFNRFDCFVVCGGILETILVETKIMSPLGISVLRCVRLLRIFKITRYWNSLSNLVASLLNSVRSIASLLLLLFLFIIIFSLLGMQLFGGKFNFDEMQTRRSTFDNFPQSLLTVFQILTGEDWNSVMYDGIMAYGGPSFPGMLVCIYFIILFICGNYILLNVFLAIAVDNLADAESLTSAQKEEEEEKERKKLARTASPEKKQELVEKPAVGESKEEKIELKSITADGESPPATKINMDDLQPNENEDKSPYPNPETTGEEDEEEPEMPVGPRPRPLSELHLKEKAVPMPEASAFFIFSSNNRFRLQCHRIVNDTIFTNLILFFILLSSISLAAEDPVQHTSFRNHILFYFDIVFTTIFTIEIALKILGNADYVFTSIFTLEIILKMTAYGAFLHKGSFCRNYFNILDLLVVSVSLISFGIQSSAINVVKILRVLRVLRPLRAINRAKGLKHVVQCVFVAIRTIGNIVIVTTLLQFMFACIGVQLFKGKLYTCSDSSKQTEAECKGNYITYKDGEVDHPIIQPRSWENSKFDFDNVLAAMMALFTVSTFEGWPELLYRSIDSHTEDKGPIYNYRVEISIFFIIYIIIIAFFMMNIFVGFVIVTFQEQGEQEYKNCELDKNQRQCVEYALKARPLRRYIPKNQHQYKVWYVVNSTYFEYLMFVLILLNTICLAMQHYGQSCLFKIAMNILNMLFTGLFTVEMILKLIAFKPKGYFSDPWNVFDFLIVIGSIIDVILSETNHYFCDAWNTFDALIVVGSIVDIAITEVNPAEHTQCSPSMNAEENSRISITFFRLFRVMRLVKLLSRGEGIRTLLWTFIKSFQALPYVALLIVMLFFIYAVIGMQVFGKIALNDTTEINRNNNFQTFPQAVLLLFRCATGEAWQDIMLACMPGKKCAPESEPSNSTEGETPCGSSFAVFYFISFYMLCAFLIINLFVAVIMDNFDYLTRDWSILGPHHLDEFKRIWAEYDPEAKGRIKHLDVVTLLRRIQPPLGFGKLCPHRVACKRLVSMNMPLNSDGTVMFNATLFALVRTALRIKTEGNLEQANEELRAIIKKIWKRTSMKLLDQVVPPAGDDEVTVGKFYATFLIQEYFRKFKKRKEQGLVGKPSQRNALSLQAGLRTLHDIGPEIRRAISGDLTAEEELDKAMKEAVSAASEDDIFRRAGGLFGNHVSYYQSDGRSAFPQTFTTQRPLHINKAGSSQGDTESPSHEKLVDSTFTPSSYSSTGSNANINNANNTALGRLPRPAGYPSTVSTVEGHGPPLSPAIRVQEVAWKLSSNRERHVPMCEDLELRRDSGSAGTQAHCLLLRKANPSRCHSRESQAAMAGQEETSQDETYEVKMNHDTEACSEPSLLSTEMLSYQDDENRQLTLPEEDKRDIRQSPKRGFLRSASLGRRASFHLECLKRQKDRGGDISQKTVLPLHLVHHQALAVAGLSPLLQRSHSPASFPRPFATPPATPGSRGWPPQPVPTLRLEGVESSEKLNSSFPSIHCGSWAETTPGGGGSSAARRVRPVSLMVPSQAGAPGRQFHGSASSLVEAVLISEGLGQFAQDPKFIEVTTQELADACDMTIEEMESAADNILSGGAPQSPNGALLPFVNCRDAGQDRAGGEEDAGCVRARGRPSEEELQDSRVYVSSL
Assay [4] addresses T1, GABA-A receptors (α1, β2, γ2s subunits) (UniProt P18508+P47870+P62813).
T1 construct: expressed in transfected cells; host or cells: Xenopus laevis oocytes injected with capped cRNAs (α1:β2:γ2s 2:2:20 ng)
As to the kind of experiment: Two-electrode voltage clamp, GABA-A receptors expressed in Xenopus oocytes. Type of assay: cell-based, rat α1 and γ2s, human β2. Particulars: FIG. 4A. As to the method: Xenopus laevis frogs were obtained from Nasco (Fort Atkinson, Wis., USA). The complementary DNAs encoding the GABAA subunits rat α1 and γ2s and human β2 were provided by Dr. M. H. Akabas and Dr. Paul Whiting, respectively. The in vitro transcription of α1, β2, and γ2s subunits was performed using mMessage mMachine® (Life Technologies, Grand Island, N.Y.). After isolation of Xenopus laevis oocytes, they were injected with capped complementary RNAs encoding α1, β2, and γ2s subunits in a ratio 2:2:20 ng. The injected oocytes were incubated at 15° C. in sterilized Barth's solution [MBS; composition: 88 mM NaCl, 1 mM KCl, 10 mM HEPES, 0.82 mM MgSO4, 2.4 mM NaHCO3, 0.91 mM CaCl2), and 0.33 mM Ca(NO3)2, pH 7.5] for 3-5 days before recording. All surgery was performed according to an approved institutional protocol. The responses of GABAARs expressed in oocytes were studied through two-electrode voltage clamp (Oocyte Clamp OC-725C, Warner Instruments, Hamden, Conn.), recording through a POWERLAB 4/30 system (ADInstruments, Colorado Springs, Colo.). The oocyte was placed in a chamber perfused with MBS, and voltage-clamped at −70 mV.

The subject of assay [5] is rats treated with Complete Freund's Adjuvant. As to the kind of experiment: Naltrindole reversal of the effect of DCUKA on CFA-induced neuropathic pain. The assay is classed as in vivo, rat. Particulars: DCUKA 50 mg/kg oral plus intraplantar saline, 2 days after CFA; FIG. 12. As to the method:
Rats were tested for baseline mechanical pain threshold (von Frey test) and given an intraplantar injection of Complete Freunds Adjuvant (CFA) in the left hind paw.

Assay [6] has the same test system. As to the kind of experiment: Prevention of CFA-induced neuropathic pain. Type of assay: in vivo, rat. Particulars: 50 mg/kg oral, four treatments at 12-hour intervals starting after CFA injection; FIG. 13. The method, then: This example illustrates that treatment of animals with DCUKA following insult, but prior to development of neuropathic pain, can prevent the development of the pain. Rats were treated with cisplatin or CFA, and mechanical pain threshold was measured, as described under Example 5.
Prevention of CFA-Induced Neuropathic Pain by DCUKA. After baseline measurement of the mechanical pain threshold, rats were treated with CFA as described earlier. Following the CFA injection, rats were given vehicle (canola oil/gelatin) (n=7) or 50 mg/kg DCUKA (n=7) orally by intragastric gavage. Rats then received three more treatments with vehicle or DCUKA at 12-hour intervals. At 60 hours after CFA treatment, the mechanical pain threshold was again tested.

The test system is the same in assay [7]. The assay can be described thus: Combination with morphine, CFA-induced pain, mechanical pain threshold. The assay is classed as in vivo, rat. Conditions: FIG. 15 Panel A.
Assay [8] deals with 5-HT3 (Serotonin Rs) (Homo sapiens, UniProt P46098). The assay can be described thus: PDSP radioligand binding.
Assay [9] concerns the target mGluR5 (Metabotropic Glutamate Rs) (Homo sapiens, UniProt P41594). The assay can be described thus: PDSP radioligand binding.

Each structure is given as a SMILES string. A value given as a limit tells only on which side of the number the result lay.

T1 sequence (P62813 28-455): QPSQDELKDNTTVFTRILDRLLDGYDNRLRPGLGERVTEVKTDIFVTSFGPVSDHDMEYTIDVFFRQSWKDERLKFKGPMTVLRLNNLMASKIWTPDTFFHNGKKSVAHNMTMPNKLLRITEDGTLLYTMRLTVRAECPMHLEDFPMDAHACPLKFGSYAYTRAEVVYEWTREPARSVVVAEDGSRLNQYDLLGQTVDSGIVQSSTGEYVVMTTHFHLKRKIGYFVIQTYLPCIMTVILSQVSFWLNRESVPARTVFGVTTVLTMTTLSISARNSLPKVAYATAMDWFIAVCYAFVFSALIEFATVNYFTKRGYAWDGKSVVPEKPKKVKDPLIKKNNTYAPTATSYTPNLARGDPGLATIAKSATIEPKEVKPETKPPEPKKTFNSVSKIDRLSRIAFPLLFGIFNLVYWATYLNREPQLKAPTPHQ
T1 sequence (P47870 26-474 isoform P47870-1 limits assumed): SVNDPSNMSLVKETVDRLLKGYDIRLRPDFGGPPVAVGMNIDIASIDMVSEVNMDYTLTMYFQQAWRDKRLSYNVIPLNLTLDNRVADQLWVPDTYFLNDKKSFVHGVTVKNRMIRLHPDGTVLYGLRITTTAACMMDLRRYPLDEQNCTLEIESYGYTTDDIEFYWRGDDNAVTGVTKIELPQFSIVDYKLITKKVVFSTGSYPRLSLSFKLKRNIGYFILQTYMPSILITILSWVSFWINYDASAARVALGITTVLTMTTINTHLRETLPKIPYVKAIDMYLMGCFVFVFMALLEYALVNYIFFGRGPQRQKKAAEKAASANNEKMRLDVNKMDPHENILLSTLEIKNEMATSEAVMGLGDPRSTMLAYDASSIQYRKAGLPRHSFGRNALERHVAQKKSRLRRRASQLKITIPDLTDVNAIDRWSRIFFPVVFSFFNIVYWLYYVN
T1 sequence (P18508 39-466): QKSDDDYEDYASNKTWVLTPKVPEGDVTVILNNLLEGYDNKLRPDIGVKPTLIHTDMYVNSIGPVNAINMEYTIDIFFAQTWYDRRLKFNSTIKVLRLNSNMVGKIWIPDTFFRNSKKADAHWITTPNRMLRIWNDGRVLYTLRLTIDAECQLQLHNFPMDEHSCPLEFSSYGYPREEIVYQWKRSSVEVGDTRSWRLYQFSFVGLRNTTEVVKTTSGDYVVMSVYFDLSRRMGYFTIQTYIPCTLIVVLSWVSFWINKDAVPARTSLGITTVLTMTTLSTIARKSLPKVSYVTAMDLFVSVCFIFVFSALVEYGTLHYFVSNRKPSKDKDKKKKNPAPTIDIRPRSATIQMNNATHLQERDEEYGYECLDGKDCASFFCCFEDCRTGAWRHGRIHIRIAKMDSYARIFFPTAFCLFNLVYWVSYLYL
mGluR5 (Metabotropic Glutamate Rs), sequence (P41594 21-1212): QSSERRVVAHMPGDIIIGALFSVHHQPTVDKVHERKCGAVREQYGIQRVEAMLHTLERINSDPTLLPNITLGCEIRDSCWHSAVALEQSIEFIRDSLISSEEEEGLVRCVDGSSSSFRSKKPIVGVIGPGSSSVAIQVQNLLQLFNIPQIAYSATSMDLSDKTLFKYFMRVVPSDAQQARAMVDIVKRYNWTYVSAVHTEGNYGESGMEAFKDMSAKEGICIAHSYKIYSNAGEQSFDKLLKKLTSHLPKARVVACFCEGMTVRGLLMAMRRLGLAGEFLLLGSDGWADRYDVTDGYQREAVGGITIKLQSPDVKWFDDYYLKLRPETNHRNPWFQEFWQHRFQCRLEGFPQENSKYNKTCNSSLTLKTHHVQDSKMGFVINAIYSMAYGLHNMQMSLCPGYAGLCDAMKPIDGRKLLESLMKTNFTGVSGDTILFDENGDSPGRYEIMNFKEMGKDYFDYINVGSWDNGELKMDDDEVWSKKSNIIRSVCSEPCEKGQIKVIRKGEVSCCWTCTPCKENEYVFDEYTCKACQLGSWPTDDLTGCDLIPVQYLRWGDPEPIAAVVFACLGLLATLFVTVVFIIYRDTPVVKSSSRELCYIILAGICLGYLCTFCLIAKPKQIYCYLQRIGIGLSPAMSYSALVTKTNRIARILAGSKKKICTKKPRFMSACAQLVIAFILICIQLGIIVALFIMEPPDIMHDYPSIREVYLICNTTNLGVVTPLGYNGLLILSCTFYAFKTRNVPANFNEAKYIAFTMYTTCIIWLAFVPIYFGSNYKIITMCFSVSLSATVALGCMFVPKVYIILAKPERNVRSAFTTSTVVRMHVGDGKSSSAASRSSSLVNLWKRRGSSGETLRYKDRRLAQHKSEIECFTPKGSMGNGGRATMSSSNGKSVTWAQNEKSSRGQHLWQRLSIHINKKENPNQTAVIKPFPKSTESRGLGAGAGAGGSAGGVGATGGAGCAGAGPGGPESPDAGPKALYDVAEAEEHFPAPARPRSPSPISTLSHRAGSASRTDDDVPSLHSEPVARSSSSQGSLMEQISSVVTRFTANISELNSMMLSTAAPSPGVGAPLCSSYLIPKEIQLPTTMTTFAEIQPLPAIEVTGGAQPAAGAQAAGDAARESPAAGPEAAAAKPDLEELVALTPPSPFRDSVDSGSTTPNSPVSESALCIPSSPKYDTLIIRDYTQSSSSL

In the case of `O=C(O)c1cc(NC(=O)N(c2ccccc2)c2ccccc2)c2c(Cl)cc(Cl)cc2n1` [DCUKA, 5,7-dichloro-4-(3,3-diphenylureido)quinoline-2-carboxylic acid], the Ki in assay [1] was 6.6 ± 1.8 µM; in assay [2], above 10 µM; in assay [3], above 10 µM; in assay [8] it was above 10 µM; in [9], above 10 µM. In addition, the “Character of action at the GABA-A receptor” value in [4] is listed as “positive allosteric modulators (PAM)”. For the same compound, in assay [4] (co-applied with EC10 GABA), the GABA-induced chloride currents entry is given as “significantly enhanced GABA-induced currents”. Further, the “Chloride currents, compound alone” value in [4] (without GABA) was “no effect on chloride currents by themselves”. The Mechanical pain threshold entry in [5] was “increased the pain threshold back to baseline level”. Moreover, the “Mechanical pain threshold at 60 hours after CFA, ratio to baseline” value in assay [6] was “the threshold was not reduced”. In assay [7], the “Analgesia, each agent alone at the dose used for the combination” value is on record as “ineffective in producing analgesia”. The “Reversal of CFA-induced pain, combination of DCUKA and morphine” value in [7] (doses ineffective alone, injected 30 min before test, 48 h after CFA) was “complete reversal of inflammation-induced chronic pain”.
